The target in assay [1] is GDP-bound HRAS wild-type protein (Homo sapiens, UniProt P01112). Put plainly: Binding to HRAS by surface plasmon resonance (SPR), Single Cycle Kinetics. Conditions: for HRAS/KRAS (ratio of KD for GDP-bound HRAS wild-type to KD for KRAS) / HRAS/KRAS (ratio of KD value with respect to HRAS to KD value with respect to KRAS): SPR; for HRAS/KRAS (ratio of KD value with respect to HRAS to KD value with respect to KRAS): GDP-bound HRAS wild-type vs GDP-bound KRAS wild-type; for HRAS/KRAS (ratio of KD value with respect to GDP-bound HRAS wild-type protein to KD value with respect to KRAS): class symbols.
Sequence of GDP-bound HRAS wild-type protein (P01112 whole entry): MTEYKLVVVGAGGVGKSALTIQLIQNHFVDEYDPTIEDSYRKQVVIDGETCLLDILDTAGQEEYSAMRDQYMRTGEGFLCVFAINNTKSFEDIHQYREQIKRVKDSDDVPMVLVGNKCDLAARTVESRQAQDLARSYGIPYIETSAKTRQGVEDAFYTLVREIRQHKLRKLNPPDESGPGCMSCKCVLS

For assay [2], the target named is GDP-bound NRAS wild-type protein (Homo sapiens, UniProt P01111). As to the kind of experiment: Binding to NRAS by surface plasmon resonance (SPR), Single Cycle Kinetics. The following applies: for NRAS/KRAS (ratio of KD for GDP-bound NRAS wild-type to KD for KRAS) / NRAS/KRAS (ratio of KD value with respect to NRAS to KD value with respect to KRAS): SPR; for NRAS/KRAS (ratio of KD value with respect to NRAS to KD value with respect to KRAS): GDP-bound NRAS wild-type vs GDP-bound KRAS wild-type; for NRAS/KRAS (ratio of KD value with respect to GDP-bound NRAS wild-type protein to KD value with respect to KRAS): class symbols. Background: In SPR one partner is held on a chip, and binding of the other changes the refractive index at the surface.
Sequence of GDP-bound NRAS wild-type protein (P01111 whole entry): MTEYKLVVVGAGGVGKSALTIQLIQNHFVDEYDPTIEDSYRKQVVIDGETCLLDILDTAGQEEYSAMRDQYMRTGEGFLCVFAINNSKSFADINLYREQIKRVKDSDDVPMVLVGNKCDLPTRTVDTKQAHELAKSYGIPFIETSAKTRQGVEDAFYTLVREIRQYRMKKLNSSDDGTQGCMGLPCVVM

Where a SMILES comes first, the peptide text is derived from it. Bridges are numbered along the chain shown (N, C = ends). [ ]: non-standard residue; d: D form. The star is where a group is joined. hPhe(3-Cl-4-CF3) = N[C@@H](CCc1ccc(C(F)(F)F)c(Cl)c1)C(=O)O; NPrPhe(4-CF3) = CCCN[C@@H](Cc1ccc(C(F)(F)F)cc1)C(=O)O; NEtPhe(4-CF3) = CCN[C@@H](Cc1ccc(C(F)(F)F)cc1)C(=O)O; NMeGly(cPent) = CN[C@H](C(=O)O)C1CCCC1; Hyp = O=C(O)[C@@H]1C[C@@H](O)CN1; NMeD = CN[C@@H](CC(=O)O)C(=O)O; NMeL = CN[C@@H](CC(C)C)C(=O)O; Morpholide = C1CN(*)CCO1; NMeA = CN[C@@H](C)C(=O)O; Aze = O=C(O)[C@@H]1CCN1; Ac4c = NC1(C(=O)O)CCC1; Aib = CC(C)(N)C(=O)O; Sar = CNCC(=O)O

In the case of `CCCN1C(=O)[C@@H]2CCN2C(=O)[C@H](C)N(C)C(=O)[C@H]([C@@H](C)CC)NC(=O)[C@H](CC(C)C)N(C)C(=O)C[C@@H](C(=O)N2CCOCC2)NC(=O)[C@H](C2CCCC2)N(C)C(=O)C2(CCC2)NC(=O)[C@@H]2C[C@@H](OCC)CN2C(=O)[C@H](CCc2ccc(C(F)(F)F)c(Cl)c2)NC(=O)CN(C)C(=O)[C@@H]1Cc1ccc(C(F)(F)F)cc1` [PP0348] ([NMeL]I[NMeA][Aze][NPrPhe(4-CF3)][Sar][hPhe(3-Cl-4-CF3)][Hyp](Et)[Ac4c][NMeGly(cPent)]D-Morpholide; lactam N-11), the “HRAS/KRAS (ratio of KD for GDP-bound HRAS wild-type to KD for KRAS)” value in assay [1] was “B (a compound having 3 or more and less than 10 is denoted as B)”. For the same molecule, the “NRAS/KRAS (ratio of KD for GDP-bound NRAS wild-type to KD for KRAS)” value in assay [2] was “C (A compound having a KD ratio of 0.1 or more and less than 3 is denoted as C)”.
For `CCO[C@@H]1C[C@H]2C(=O)NC3(CC(C)(C)C3)C(=O)N(C)[C@@H](C(CC)CC)C(=O)N(C)[C@H](C(=O)N3CCCC3)CC(=O)N(C)[C@@H](C)C(=O)N[C@@H]([C@@H](C)CC)C(=O)N(C)CC(=O)N(C)[C@H]3C/C=C\CCN(C3=O)[C@@H](Cc3ccc(C(F)(F)F)cc3)C(=O)N(C)CC(=O)N[C@@H](CCc3ccc(Cl)c(Cl)c3)C(=O)N2C1` [PP2178], the “HRAS/KRAS (ratio of KD value with respect to HRAS to KD value with respect to KRAS)” value in assay [1] was “A (a compound having 10 or more and less than 20 is denoted as A)”. Besides, in assay [2], the “NRAS/KRAS (ratio of KD value with respect to NRAS to KD value with respect to KRAS)” value is “AA (a compound having 20 or more is denoted as AA)”.
`CCO[C@@H]1C[C@H]2C(=O)NC3(CC(C)(C)C3)C(=O)N(C)[C@@H](C3CCCC3)C(=O)N(C)[C@H](C(=O)N3CCCC3)CC(=O)N(C)[C@H]3CCC/C=C/c4ccc(cc4)C[C@@H](C(=O)N(C)CC(=O)N[C@@H](CCc4cc(F)c(C(F)(F)F)c(F)c4)C(=O)N2C1)N1CC/C=C\C[C@@H](C1=O)N(C)C(=O)CN(C1CC1)C(=O)[C@H]([C@@H](C)CC)NC3=O` [PP2583]: in assay [1], the “HRAS/KRAS (ratio of KD value with respect to GDP-bound HRAS wild-type protein to KD value with respect to KRAS)” value was “A (a compound having 10 or more and less than 20 is denoted as A)”. The “NRAS/KRAS (ratio of KD value with respect to GDP-bound NRAS wild-type protein to KD value with respect to KRAS)” value in assay [2] was “A (a compound having 10 or more and less than 20 is denoted as A)”.
`CC[C@H](C)[C@@H]1NC(=O)[C@H](CC(C)C)N(C)C(=O)C[C@@H](C(=O)N2CCOCC2)N(C)C(=O)[C@H](C2CCCC2)N(C)C(=O)C(C)(C)NC(=O)[C@@H]2CCCN2C(=O)[C@H](CCc2ccc(C(F)(F)F)c(Cl)c2)NC(=O)CN(C)C(=O)[C@H](Cc2ccc(C(F)(F)F)cc2)N(CC)C(=O)[C@@H]2CCN2C(=O)[C@H](C)N(C)C1=O` [PP0221] ([NMeL]I[NMeA][Aze][NEtPhe(4-CF3)][Sar][hPhe(3-Cl-4-CF3)]P[Aib][NMeGly(cPent)][NMeD]-Morpholide; lactam N-11): in assay [1], the “HRAS/KRAS (ratio of KD for GDP-bound HRAS wild-type to KD for KRAS)” value is “C (A compound having a KD ratio of 0.1 or more and less than 3 is denoted as C)”. The “NRAS/KRAS (ratio of KD for GDP-bound NRAS wild-type to KD for KRAS)” value in assay [2] was “C (A compound having a KD ratio of 0.1 or more and less than 3 is denoted as C)”.
On to `CCO[C@@H]1C[C@H]2C(=O)NC3(CC(C)(C)C3)C(=O)N(C)[C@@H](C3CCCC3)C(=O)N(C)[C@H](C(=O)N(C)CC)CC(=O)N(C)[C@@H](COC)C(=O)N[C@@H]([C@@H](C)CC)C(=O)N(C)CC(=O)N(C)[C@H]3C/C=C\CCN(C3=O)[C@@H](Cc3ccc(C(F)(F)F)cc3)C(=O)N(C)CC(=O)N[C@@H](CCc3ccc(C(F)(F)F)c(Cl)c3)C(=O)N2C1` [PP2836], for which the “HRAS/KRAS (ratio of KD value with respect to GDP-bound HRAS wild-type protein to KD value with respect to KRAS)” value in assay [1] was “A (a compound having 10 or more and less than 20 is denoted as A)”. For the same molecule, the “NRAS/KRAS (ratio of KD value with respect to GDP-bound NRAS wild-type protein to KD value with respect to KRAS)” value in assay [2] is “A (a compound having 10 or more and less than 20 is denoted as A)”.
As for `CCO[C@@H]1C[C@H]2C(=O)NC3(CCC3)C(=O)N(C)[C@@H](C3CCCC3)C(=O)N(CCC3CCCC3)[C@H](C(=O)N3CCOCC3)CC(=O)N(C)[C@@H](CC)C(=O)N[C@@H]([C@@H](C)CC)C(=O)N(C)CC(=O)N(C)[C@H]3C/C=C\CCN(C3=O)[C@@H](Cc3ccc(C(F)(F)F)cc3)C(=O)N(C)CC(=O)N[C@@H](CCc3cc(F)c(C(F)(F)F)c(F)c3)C(=O)N2C1` [PP0981], the “HRAS/KRAS (ratio of KD value with respect to HRAS to KD value with respect to KRAS)” value in assay [1] (KD ratio) is “A (a compound having 10 or more and less than 20 is denoted as A)”. In addition, the “NRAS/KRAS (ratio of KD value with respect to NRAS to KD value with respect to KRAS)” value in assay [2] (KD ratio) is “AA (a compound having 20 or more is denoted as AA)”.
For `CCO[C@@H]1C[C@H]2C(=O)NC3(CC(C)(C)C3)C(=O)N(C)[C@@H](C(CC)CC)C(=O)N(C)[C@H](C(=O)N(C)C)CC(=O)N(C)[C@@H](CC)C(=O)N[C@@H]([C@@H](C)CC)C(=O)N(C)CC(=O)N(C)[C@H]3C/C=C\CCN(C3=O)[C@@H](Cc3ccc(C)cc3)C(=O)N(C)CC(=O)N[C@@H](CCc3cc(F)c(C(F)(F)F)c(F)c3)C(=O)N2C1` [PP2147], the “HRAS/KRAS (ratio of KD value with respect to HRAS to KD value with respect to KRAS)” value in assay [1] was “B (a compound having 3 or more and less than 10 is denoted as B)”. Moreover, the “NRAS/KRAS (ratio of KD value with respect to NRAS to KD value with respect to KRAS)” value in assay [2] was “A (a compound having 10 or more and less than 20 is denoted as A)”.

The record behind these values is patent US20250230193A1, “CYCLIC COMPOUND HAVING SELECTIVE KRAS INHIBITORY EFFECT ON HRAS AND NRAS” (CHUGAI SEIYAKU KABUSHIKI KAISHA, priority 2022, published 2025).
